Data as given in US4568690A, “1-Methyl-5-p-methylbenzoylpyrrole-2-acetamidoacetanilides with antiinflammatory, analgesic, antipyretic and anti-platelet aggregant activity” (priority 1983, dated 1986).
Read-outs that look alike come from different tables or passages of the source.

What was measured:
[1] = tested on: platelet aggregation (ADP-induced); test: in vitro anti-platelet aggregant activity (Born's method, ADP); format: cell-based, rat; settings: for inhibition at 1 µg/mL / inhibition at 5 µg/mL / inhibition at 10 µg/mL: Rattus norvegicus, Platelet, read-out: Inhibition % (platelet aggregation)
Description: This activity was studied in vitro following Born's method (G. W. R. Born, Nature, 194, 937 (1962)) and inducing platelet aggregation with ADP. […] For the aggregation test, 0.2 ml of platelet rich plasma was mixed with a NaCl solution (0.9%) to which the test substance was added up to a final volume of 0.6 ml. Incubation was fixed at 3 minutes at 27° C. After aggregation was induced with ADP, the course of the aggregation was monitored continuously with an Elvi 840 Aggregometer (Elvi Logos--Milan). The antiaggregant effects were determined by the difference in the light transmission of the sample with respect to that of the ADP control. The test compound was compared with aspirin, which has known antiplatelet aggregant activity (H. J. Weiss et al., J. Clin. Inv., 47, 2169 (1968); Platelet Aggregation and Drugs, edited by L. Caprino and E. C. Rossi, page 235, Academic Press (London), 1974).
Table VI reports the inhibition of platelet aggregation with various doses of the compounds tested at a constant ADP concentration.

[2] = tested on: gastric mucosa; test: gastric tolerance (ulcerogenic activity); settings: orally, four consecutive days; for Mean number severity: severity scale 0-5
Description: This was studied by testing ulcerogenic activity in male Wistar rats weighing an average of 180 g, using groups of 10 animals each. Three doses of each substance were used, and one group of animals was treated with vehicle only, in a volume of 10 ml/g body weight. Each dose was administered orally for four consecutive days, and the rats were killed on the fifth day and autopsied. The ulcerogenic effect was evaluated on the following scale:
(1) each hemorrhage point >1 mm was evaluated as 1 lesion
(2) the hemorrhage points <1 were counted as follows:
(b) from 1 to 19 2 lesions
(c) from 1 to 29 3 lesions
(2) gastric mucosa irritation
(3) hemorrhage points <1 mm
(4) hemorrhage points from 1 to 3 mm
(5) hemorrhage points >3 mm
This scale was used to calculate the following index of gastric damage: [formula]

[3] = tested on: hyperthermia induced by dry purified beer yeast; test: antipyretic activity, beer yeast-induced hyperthermia; format: in vivo, Wistar strain male albino rats
Description: (§1) Preparations of the compound were administered orally and/or parenterally in a suspension in 0.59% carboxymethylcellulose in pH neutral physiological saline.
This effect was evaluated by inducing hyperthermia in Wistar strain male albino rats with an average weight of 250±10 g, injecting them intraperitoneally with a 10% suspension of dry purified beer yeast (Carlo Erba) in a volume of 10 ml/Kg of body weight, according to the method of S. Wong et al. (J. Pharmac. Exp. Ther., 185 (1), 127 (1973)).

[4] = tested on: carragenin-induced edema; test: carragenin-induced edema test (antinflammatory activity); format: in vivo, rats
Description: as §1
This effect was evaluated with an experimental model reproducing actue inflammation in rats: the carragenin-induced edema test was used, according to the method of C. A. Winter (G. Pharmac. Exp. Ther., 141, 369 (1963)). Table III reports the compounds tested, their concentrations, administration routes and relative percent edema inhibition.

[5] = tested on: p-phenylquinone-induced writhing; test: p-phenylquinone-induced writhing test (analgesic activity); format: in vivo; settings: an hour after administration
Description: as §1
The determination was made an hour after administration of the product. The inhibitory effect on abdominal contractions induced by phenyl-p-quinone was calculated as follows: [formula]
Table IV reports the doses, the administration routes and their effectiveness expressed as % protection.

SMILES: CC(=O)Oc1ccccc1C(=O)O [Aspirin, reference compound]
- inhibition at 1 µg/mL [1]: 15%
- inhibition at 5 µg/mL [1]: 60%
- inhibition at 10 µg/mL [1]: 100%

SMILES: COc1ccccc1NC(=O)CNC(=O)Cc1ccc(C(=O)c2ccc(C)cc2)n1C [Compound 1d]
- Index gastric damage ([2]; 50 mg/kg): 9
- Index gastric damage, signed figure (untitled; difference from Carrier index 8) ([2]; 50 mg/kg): +1
- Mean number lesions ([2]; 50 mg/kg): 1
- Mean number severity ([2]; 50 mg/kg): 1
- Index gastric damage ([2]; 100 mg/kg): 11
- Index gastric damage, signed figure (untitled; difference from Carrier index 8) ([2]; 100 mg/kg): +3
- Mean number lesions ([2]; 100 mg/kg): 1
- Mean number severity ([2]; 100 mg/kg): 2
- Index gastric damage ([2]; 200 mg/kg): 12
- Index gastric damage, signed figure (untitled; difference from Carrier index 8) ([2]; 200 mg/kg): +4
- Mean number lesions ([2]; 200 mg/kg): 2
- Mean number severity ([2]; 200 mg/kg): 2
- anti-platelet aggregant activity (in words) [1]: particularly pronounced anti-platelet aggregant activity
- inhibition at 1 µg/mL ([1]; 1 γ/ml, ADP 7.08 μmol/l): 20%
- inhibition at 5 µg/mL ([1]; 5 γ/ml, ADP 7.08 μmol/l): 70%
- inhibition at 10 µg/mL ([1]; 10 γ/ml, ADP 7.08 μmol/l): 90%
- Temperature decrease % ([3]; i.p., 50 mg/kg, 1 h): 18.0%
- Temperature decrease % ([3]; i.p., 50 mg/kg, 2 h): 26.0%
- Temperature decrease % ([3]; i.p., 50 mg/kg, 3 h): 39.0%
- Temperature decrease % ([3]; i.p., 75 mg/kg, 1 h): 30.0%
- Temperature decrease % ([3]; i.p., 75 mg/kg, 2 h): 36.1%
- Temperature decrease % ([3]; i.p., 75 mg/kg, 3 h): 56.1%
- Temperature decrease % ([3]; i.p., 100 mg/kg, 1 h): 42.0%
- Temperature decrease % ([3]; i.p., 100 mg/kg, 2 h): 49.0%
- Temperature decrease % ([3]; i.p., 100 mg/kg, 3 h): 48.0%
- Temperature decrease % ([3]; os, 50 mg/kg, 1 h): 16.0%
- Temperature decrease % ([3]; os, 50 mg/kg, 6 h): 22.0%
- Temperature decrease % ([3]; os, 50 mg/kg, 24 h): 30.1%
- Temperature decrease % ([3]; os, 75 mg/kg, 1 h): 18.0%
- Temperature decrease % ([3]; os, 75 mg/kg, 6 h): 28.0%
- Temperature decrease % ([3]; os, 75 mg/kg, 24 h): 48.2%
- Temperature decrease % ([3]; os, 100 mg/kg, 1 h): 29.0%
- Temperature decrease % ([3]; os, 100 mg/kg, 6 h): 32.0%
- Temperature decrease % ([3]; os, 100 mg/kg, 24 h): 50.0%
- Oedema inhibition % ([4]; i.p., 10 mg/kg, 3 h): 48.7%
- Oedema inhibition % ([4]; i.p., 10 mg/kg, 6 h): 36.5%
- Oedema inhibition % ([4]; i.p., 10 mg/kg, 24 h): 0.0%
- Oedema inhibition % ([4]; i.p., 50 mg/kg, 3 h): 59.2%
- Oedema inhibition % ([4]; i.p., 50 mg/kg, 6 h): 52.0%
- Oedema inhibition % ([4]; i.p., 50 mg/kg, 24 h): 18.9%
- Oedema inhibition % ([4]; i.p., 100 mg/kg, 3 h): 78.6%
- Oedema inhibition % ([4]; i.p., 100 mg/kg, 6 h): 66.3%
- Oedema inhibition % ([4]; i.p., 100 mg/kg, 24 h): 30.5%
- Oedema inhibition % ([4]; os, 10 mg/kg, 3 h): 47.2%
- Oedema inhibition % ([4]; os, 10 mg/kg, 6 h): 40.0%
- Oedema inhibition % ([4]; os, 10 mg/kg, 24 h): 9.0%
- Oedema inhibition % ([4]; os, 50 mg/kg, 3 h): 58.5%
- Oedema inhibition % ([4]; os, 50 mg/kg, 6 h): 54.0%
- Oedema inhibition % ([4]; os, 50 mg/kg, 24 h): 30.0%
- Oedema inhibition % ([4]; os, 100 mg/kg, 3 h): 77.1%
- Oedema inhibition % ([4]; os, 100 mg/kg, 6 h): 66.0%
- Oedema inhibition % ([4]; os, 100 mg/kg, 24 h): 38.0%
- antinflammatory, analgesic and antipyretic activity versus ester analogue (4) (in words) ([4]; rat, in vivo): comparable to that of the ester analogue (4)
- Protection % ([5]; i.p., 5 mg/kg): 29.0%
- Protection % ([5]; i.p., 10 mg/kg): 60.1%
- Protection % ([5]; i.p., 20 mg/kg): 73.4%
- Protection % ([5]; os, 5 mg/kg): 22.9%
- Protection % ([5]; os, 10 mg/kg): 54.2%
- Protection % ([5]; os, 20 mg/kg): 70.1%
